Measured values published in publication PMC9323625, “Structure–Function Insights into the Fungal Endo-Chitinase Chit33 Depict its Mechanism on Chitinous Material” (International Journal of Molecular Sciences, 2022).

Target: T1, Chit33 (Trichoderma harzianum, UniProt Q12713, D165A/E167A)
T1 construct: gene chit33 (909 bp, 321 amino acids) expressed in Pichia pastoris GS115 from CHIT33-pIB4, secreted to the extracellular fraction; 33 kDa
T1 sequence (Q12713 20-321 D165A/E167A): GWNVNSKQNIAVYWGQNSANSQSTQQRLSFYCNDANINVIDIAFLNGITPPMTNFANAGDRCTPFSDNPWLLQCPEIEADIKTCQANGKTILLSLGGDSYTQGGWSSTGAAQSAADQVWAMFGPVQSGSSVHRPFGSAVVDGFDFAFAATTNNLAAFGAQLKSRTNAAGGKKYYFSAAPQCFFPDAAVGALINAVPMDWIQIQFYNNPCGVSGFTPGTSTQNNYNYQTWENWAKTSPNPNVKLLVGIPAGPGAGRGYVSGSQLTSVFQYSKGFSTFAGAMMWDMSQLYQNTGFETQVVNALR
Assay: X-ray crystal structure, […] Å
Format: binding
Conditions: crystal soaked with 18 mM NAG4 for 30 min; active site, subsites −2 to +2; inactivated double mutant

Question: `CC(=O)N[C@H]1[C@H](O[C@H]2[C@H](O)[C@@H](NC(C)=O)C(O)O[C@@H]2CO)O[C@H](CO)[C@@H](O[C@@H]2O[C@H](CO)[C@@H](O[C@@H]3O[C@H](CO)[C@@H](O)[C@H](O)[C@H]3NC(C)=O)[C@H](O)[C@H]2NC(C)=O)[C@@H]1O` (stereo partly shown) [NAG4, N,N’,N’’,N’’’-acetyl chitotetraose] was tested. Which “X-ray crystal structure, 1.60 Å” value did it give?
Answer: The value was “we determined the crystal structure of the inactive double-mutant D165A/E167A with the substrate NAG4”.
